Source: paper PMC10201669, “A novel coumarin derivative DBH2 inhibits proliferation and induces apoptosis of chronic myeloid leukemia cells” (Genes & Diseases, 2022)
In brackets after ≈: the same amount, converted by molar mass.

Key:
[1] = tested on: CD34+ hematopoietic stem and progenitor cells (HSPCs); assay: CCK-8 cell viability assay (cytotoxicity), HSPCs; assay type: cell-based, human; conditions: CCK-8, 48 h; for IC50: Homo sapiens
From the text: (§1) Human CD34^+ HSCPs were obtained from the specimens of consenting healthy donors or CML patients at Xijing Hospital, and purified using Human Whole Blood CD34 Positive Selection Kit II (StemCell Technologies, China). Briefly, the human bone marrow was homogenized, and the top layering with Ficoll-Paque (GE Healthcare, USA) interphase containing immune cells and CD34^+ HSPCs was collected and washed with PBS, then CD34^+ HSPCs were purified according to the protocol of EasySep human CD34 positive selection kit (StemCell Technologies, China). CD34^+ cells were cultured in StemSpan-ACF medium II supplemented with 50 ng/mL human stem cell factor, 10 ng/mL thrombopoietin, 20 ng/mL FMS-related tyrosine kinase 3 ligand, 20 ng/mL interleukin-6 and 1% penicillin-streptomycin solution.
(§2) Cell viability was examined using the cell counting kit-8 (CCK-8) assay (YEASEN China). In brief, cells (1 × 10^4 cells/well) in confluent 96-well cell culture plates were treated with different concentrations of coumarin derivative (1, 5, 10, 25, 50, 100, 200, and 400 μg/mL) for 48 h. Then 10 μL CCK-8 reagents were added into every well for 2 h of incubation. Optical density (OD) was detected using the microplate reader (BioTek, Germany). The values were then fit into a non-linear regression curve and the IC50 was calculated using GraphPad Prism.

K562R cells = assay: CCK-8 cell viability assay, drug resistant K562 cells; assay type: cell-based, human; conditions: CCK-8, 48 h; for IC50: Homo sapiens, K-562R
Description: (§3) Human CML cell line K562 cells and human umbilical vein endothelial cells (HUVECs) were purchased from ATCC (Manassas, USA). Drug resistant K562 (K562R) cells were provided by the Chinese Academy of Medical Science Hematology Institute. The cells were cultured in RPMI-1640 medium containing 10% fetal bovine serum (FBS) in cell culture flasks under a humidified 5% CO2 and 95% air atmosphere at 37 °C. Bone marrow (BM) cells from mice or patients were cultured in DMEM/F12 medium supplemented with 20% FBS.
as §2

K562 cells [2] = assay: CCK-8 cell viability assay, K562 cells; assay type: cell-based, human; conditions: CCK-8, 48 h; for IC50: Homo sapiens, K562
Description: as §3, §2

HUVECs = assay: CCK-8 cell viability assay (cytotoxicity), HUVECs; assay type: cell-based, human; conditions: CCK-8, 48 h; for IC50: Homo sapiens, HUVEC
Description: as §3, §2

[3] = tested on: human cervical cancer HeLa cells; set-up: method as in PMID 18210747; conditions: G0/G1 arrest and apoptosis; cited from earlier work
PARP1 = assay: Western blot, PARP1 protein in K562 cells; assay type: cell-based, human; conditions: K562, 100 and 200 μg/mL, vs untreated control
Description: (§4) Cells were washed with Tris-buffered saline (TBS) and lysed by adding 100 μL of RIPA Lysis Buffer System containing protease inhibitors. Then, cell extraction was subjected to gel electrophoresis and transferred onto a polyvinylidene difluoride membrane (Millipore, Germany). After blocking with 3% BSA in TBS for 2 h, the membrane was probed with primary antibodies overnight at 4 °C, the antibody against PARP1 (Proteintech, USA) or ROCK1 proteins (Proteintech, USA) was diluted at 1:1000, and the antibody for GAPDH (Abcam, UK) was diluted at 1:1000. After secondary antibodies labeled with infrared dyes were added, the signals were visualized using the Odyssey Infrared Imaging System (Biosciences, USA).

[4] = tested on: CML-like model mice (recipients of SCL-tTA-BCR/ABL bone marrow); assay: Survival of CML-like model mice after bone marrow transplantation; assay type: in vivo, mouse; conditions: DBH2 100 mg/kg, 32 days with two-day interval post-BMT, intragastric
Description: (§5) The SCL-tTA-BCR/ABL transgenic model mice were used as donor, and sub-lethally irradiated (850 rad) wild type mice were use as receiver, once the bone marrow transplantation (BMT) was performed from the donor mice to the recipient mice, the CML-like model mice was established. […] Caspase-3 knock-out mice were kindly gifted from the lab of Professor Hua Han, the Fourth Military Medical University.

STAT3 = assay: Quantitative RT-PCR, STAT3 mRNA in K562 cells; assay type: cell-based, human; conditions: K562, 50, 100, 200 μg/mL
Description: (§6) RNA was extracted from cells using an RNA extraction kit according to the manufacturer protocol. After reverse transcription, the real-time PCR was performed for three independent experiments with a 7300 real-time PCR system (Applied Biosystems, USA) using SYBR Premix ExTaq (Takara, China). The relative expression of genes was calculated by the 2^-△△Ct method, with normalization to GAPDH levels. Amplified products were visualized with an Alpha Imager 2200 digital imaging system (Alpha Innotech, USA). The primers (forward and backward) used were depicted in Table S1.

K562 cells [5] = assay: Cell cycle distribution by flow cytometry, K562 cells; assay type: cell-based, human; conditions: K562, 100 μg/mL; vehicle 33.9%
Description: (§7) Apoptotic cells were quantified with an FITC Annexin V Apoptosis detection kit (Becton Dickinson Biosciences, USA) according to manufacturer’s protocol. Briefly, cells at 1 × 10^5 cells/mL were incubated with various concentrations (50, 100 and 200 μg/mL) of compound DBH2 for 24 h at 37 °C. Cells were harvested and re-suspended in the binding buffer, then stained with 5 μL Annexin V-FITC and 5 μL propidium iodide (PI) for 15 min at room temperature in the dark. The apoptotic index was immediately determined by FACSCalibur Flow Cytometer (Becton Dickinson Biosciences, CA). For the cell cycle, K562 cells were harvested and fixed in 75% ethanol overnight at 4 °C, then re-suspended in pre-cooling PBS containing 0.1 mg/mL RNase and 0.02 mg/mL PI for 30 min at 37 °C. After the treatment of compound DBH2 or 1% DMSO as vehicle control, the cell cycle was analyzed using the flow cytometry and Cell Quest software (BD Biosciences, USA).

K562 cells [6] = assay: Transmission electron microscopy of K562 cells; assay type: cell-based, human; conditions: K562, 100 μg/mL, post 24 h
Description: CML cells were seeded and grown at […] in three flasks.

[7] = tested on: bone marrow cells from CML patients; assay: Annexin V/PI apoptosis, bone marrow cells from CML patients; assay type: cell-based, human
Description: as §3
The ages of three male CML patients […], all of them were newly diagnosed chronic phase, and before starting TKI therapy. Informed consent was obtained from all participants. This study adhered to the World Medical Association’s Declaration of Helsinki and its amendments for Ethical Human Research including confidentiality, privacy, and data management.
(§8) Apoptotic cells were quantified with an FITC Annexin V Apoptosis detection kit (Becton Dickinson Biosciences, USA) according to manufacturer’s protocol. […] The apoptotic index was immediately determined by FACSCalibur Flow Cytometer (Becton Dickinson Biosciences, CA). […] After the treatment of compound DBH2 or 1% DMSO as vehicle control, the cell cycle was analyzed using the flow cytometry and Cell Quest software (BD Biosciences, USA).

[8] = tested on: bone marrow myeloid cells from wild type mice; assay: Annexin V/PI apoptosis, bone marrow myeloid cells from WT mice (Fig 5); assay type: cell-based, mouse; conditions: WT, 50, 100, 200 μg/mL, 24 h
Description: as §7
(§9) The SCL-tTA-BCR/ABL transgenic model mice were used as donor, and sub-lethally irradiated (850 rad) wild type mice were use as receiver, once the bone marrow transplantation (BMT) was performed from the donor mice to the recipient mice, the CML-like model mice was established. After 8 weeks, the bone marrow reconstitution was confirmed, and the effect of treatments to the survival rates of recipient mice was observed. […]

[9] = tested on: CD34+ LSCs from CML patients; assay: Apoptosis of CD34+ LSCs from CML patients; assay type: cell-based, human; conditions: 100 μg/mL, 24 h
From the text: as §1
as §8, with “protocol. Briefly, cells at 1 × 10^5 cells/mL were incubated with various concentrations (50, 100 and 200 μg/mL) of compound DBH2 for 24 h at 37 °C.” for “protocol.”

ROCK1 = assay: Western blot, ROCK1 protein in K562 cells; assay type: cell-based, human; conditions: K562, 50, 100, 200 μg/mL
Description: as §4

STAT5 = assay: Quantitative RT-PCR, STAT5 mRNA in K562 cells; assay type: cell-based, human; conditions: K562, 50, 100, 200 μg/mL
Description: as §6

[10] = tested on: bone marrow cells from SCL-tTA-BCR/ABL transgenic model mice; assay: Annexin V/PI apoptosis, bone marrow cells from SCL-tTA-BCR/ABL transgenic model mice; assay type: cell-based, mouse; conditions: 50, 100, 200 μg/mL
Description: as §3
as §7, with “For the cell cycle, K562 cells were harvested and fixed in 75% ethanol overnight at 4 °C, then re-suspended in pre-cooling PBS containing 0.1 mg/mL RNase and 0.02 mg/mL PI for 30 min at 37 °C.” left out, “USA). […]” for “USA).”

[11] = tested on: bone marrow cells of recipients (BCR/ABL model mice); assay: Annexin V/PI apoptosis, bone marrow cells of BMT recipients, DBH2 with or without imatinib; assay type: cell-based, mouse; conditions: DBH2 at various concentrations with or without 1 μM imatinib
Description: as §5

[12] = tested on: bone marrow myeloid cells from caspase-3 gene knock-out mice; assay: Annexin V/PI apoptosis, bone marrow myeloid cells from caspase-3 knock-out mice; assay type: cell-based, mouse
Description: as §7, §9

K562 cells [13] = assay: Annexin V-FITC/PI flow cytometry, apoptosis of K562 cells; assay type: cell-based, human; conditions: 50, 100, 200 μg/mL, 24 h, vs vehicle
Description: as §7

SMILES | IC50 [1] | IC50 (K562R cells) | IC50 (K562 cells [2]) | IC50 (HUVECs) | further results
O=c1oc2ccccc2c(O)c1C(c1cc(C(F)(F)F)cc(C(F)(F)F)c1)c1c(O)c2ccccc2oc1=O [DBH6, 3,3′-(3,5-ditrifluoromethylbenzylidene)-bis-(4-hydroxycoum-arin)] |  |  |  |  | IC50, HSPCs [1]: 67.75 µg/mL (≈ 124 µM); IC50, K562 R cells (K562R cells): 35.68 µg/mL (≈ 65.1 µM); IC50, K562 cells (K562 cells [2]): 31.32 µg/mL (≈ 57.1 µM); IC50, HUVECs (HUVECs): 72.42 µg/mL (≈ 132 µM)
O=c1oc2ccccc2c(O)c1C(c1cc(Cl)cc(Cl)c1)c1c(O)c2ccccc2oc1=O [DBH3, 3,3′-(3,5-dichlorobenzylidene)-bis-(4-hydroxycoumarin)] | 72.4 µg/mL (≈ 150 µM) | 45.7 µg/mL (≈ 95 µM) | 36.5 µg/mL (≈ 75.8 µM) | 52.3 µg/mL (≈ 109 µM) | 
O=c1oc2ccccc2c(O)c1C(c1cc(Br)cc(Br)c1)c1c(O)c2ccccc2oc1=O [DBH4, 3,3′-(3,5-dibromobenzylidene)-bis-(4-hydroxycoumarin)] | 83.1 µg/mL (≈ 146 µM) | 39.9 µg/mL (≈ 69.9 µM) | 36.5 µg/mL (≈ 64.1 µM) | 88.7 µg/mL (≈ 155 µM) | 
O=c1ccc2ccccc2o1 [coumarin] |  |  |  |  | IC50 [3]: 54.2 µM
COc1cccc2c1C(=O)c1c(O)c3c(c(O)c1C2=O)C[C@@](O)(C(=O)CO)C[C@@H]3O[C@H]1C[C@H](N)[C@H](O)[C@H](C)O1 [Doxorubicin, reference compound] | 8.04 µg/mL (≈ 14.8 µM) | 24.1 µg/mL (≈ 44.4 µM) | 16.4 µg/mL (≈ 30.2 µM) | 8.76 µg/mL (≈ 16.1 µM) | 
COc1cc(OC)cc(C(c2c(O)c3ccccc3oc2=O)c2c(O)c3ccccc3oc2=O)c1 [DBH5, 3,3′-(3,5-dimethoxybenzylidene)-bis-(4-hydroxycoumarin)] | 46.4 µg/mL (≈ 98.2 µM) | 34.4 µg/mL (≈ 72.7 µM) | 30.4 µg/mL (≈ 64.5 µM) | 50.3 µg/mL (≈ 106 µM) | 
O=c1oc2ccccc2c(O)c1C(c1cc(F)cc(F)c1)c1c(O)c2ccccc2oc1=O [DBH2, 3,3′-(3,5-difluorobenzylidene)-bis-(4-hydroxycoumarin)] | 225 µg/mL (≈ 502 µM) | 38.8 µg/mL (≈ 86.5 µM) | 36.3 µg/mL (≈ 81 µM) | 232 µg/mL (≈ 518 µM) | expression of PARP1 protein (PARP1): up-regulate the expression of PARP1 significantly; survival of treated mice [4]: remarkably prolonged about two times; expression of STAT3 mRNA (STAT3): inhibit the expression of STAT3 and STAT5 in a dose-dependent manner; percentage of cells in the G2/M phase (K562 cells [5]): 41.3%; morphological observation (TEM) (K562 cells [6]): typical apoptotic-body in nuclear appeared; apoptosis of bone marrow cells from CML patients ([7]; 50, 100 and 200 μg/mL): promoted the apoptosis of bone marrow cells from CML patients in dose-dependent manner; induced apoptosis in bone marrow cells from CML patients compared to its effects on CD34+ LSC ([7]; bone marrow cells vs CD34+ LSC): almost twice fold; Annexin V positive cells [8]: increasing number of Annexin V positive cells; CD34+ LSCs developed into the apoptotic process [9]: more than twice fold; expression of ROCK1 protein (ROCK1): up-regulated the expression of ROCK1 in dose-dependent manner; expression of STAT5 mRNA (STAT5): inhibit the expression of STAT3 and STAT5 in a dose-dependent manner; apoptosis in bone marrow cells from CML model mice compared to WT mice [10]: induce the remarkable apoptosis; number of apoptotic cells [11]: ascendant number of apoptotic cells; DBH2-induced apoptosis compared to the cells from wild type mice ([12]; caspase-3 knock-out vs WT): significant less; Annexin V positive cells ([12]; caspase-3 knock-out, 50, 100, 200 μg/mL, 24 h): increasing number of Annexin V positive cells; apoptosis in CML cells (K562) (K562 cells [13]): trigger significant apoptosis in CML cells with concentration-dependent responses
O=c1oc2ccccc2c(O)c1C(c1ccccc1)c1c(O)c2ccccc2oc1=O [DBH1, 3,3′-benzylidene-bis-(4-hydroxycoumarin)] | 76.3 µg/mL (≈ 185 µM) | 33.4 µg/mL (≈ 81 µM) | 31.3 µg/mL (≈ 75.8 µM) | 85.7 µg/mL (≈ 208 µM) | 
